Drawing on PubChem BioAssay (NCI), this text covers GI50 and TGI for ten compounds.

Structures are written as SMILES.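 Cultured in 96-well plates, cells were exposed to test compound for 48 hours across five concentrations. Here, GI50 denotes the concentration required for 50% inhibition of growth. Definition used: TGI = concentration required for complete inhibition of growth.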 Where only a bound is given, the exact number is not on record here.

Test systems include SK-OV-3 ovarian; KM12 colon; NCI/ADR-RES ovarian; SNB-75 CNS; U251 CNS; MDA-MB-435; M14 melanoma; PC-3 prostate.
Common to all, as to assay: NCI anticancer screen, dose series, 48 h

Take `COc1ccc(-n2c(=S)sc3c(Cl)nc(C)nc32)c(OC)c1`: the GI50 in the assay on SK-OV-3 ovarian was 14.3 µM; in the assay on KM12 colon, 3.33 µM; with NCI/ADR-RES ovarian, 13.2 µM; in the assay on SNB-75 CNS it was 1.97 µM; in the assay with U251 CNS, 1.91 µM; with MDA-MB-435 it was 2.14 µM. Besides, the results for the GI50 in the assay with M14 melanoma and with PC-3 prostate were 1.84 µM and 2.37 µM, respectively. Further, the TGI in the assay on SK-OV-3 ovarian turned out to be 27.3 µM; in the assay on KM12 colon, 11.5 µM; in the assay on NCI/ADR-RES ovarian, 72.9 µM; in the assay with SNB-75 CNS it was 4.26 µM; in the assay on U251 CNS, 3.65 µM; in the assay with MDA-MB-435, 3.93 µM. The TGI in the assay on M14 melanoma came to 4.05 µM; in the assay with PC-3 prostate, 5.91 µM.
With `C[C@@]1(F)[C@H](O)[C@@H](CO)O[C@H]1n1ccc(=O)[nH]c1=O`, the GI50 with SK-OV-3 ovarian, with KM12 colon, in the assay with NCI/ADR-RES ovarian, in the assay on SNB-75 CNS, in the assay on U251 CNS and in the assay with MDA-MB-435 was over 100 µM throughout. Moreover, the GI50 with M14 melanoma and in the assay with PC-3 prostate was over 100 µM in each case. The TGI with SK-OV-3 ovarian, in the assay with KM12 colon, in the assay on NCI/ADR-RES ovarian, with SNB-75 CNS, with U251 CNS and in the assay on MDA-MB-435 was over 100 µM each time. For the same compound, the TGI with M14 melanoma and in the assay with PC-3 prostate was over 100 µM each time.
As for `Cn1c(COC(=O)NCCc2ccccn2)nc2c(N3CCOCC3)nc(Cl)nc21`, the GI50 is 12 µM in the assay with SK-OV-3 ovarian; 1.8 µM with KM12 colon; 2.62 µM with NCI/ADR-RES ovarian; 1.38 µM with SNB-75 CNS; 1.63 µM in the assay with U251 CNS; 1.46 µM in the assay on MDA-MB-435. The results for the GI50 in the assay with M14 melanoma and in the assay on PC-3 prostate were 1.53 µM and 1.64 µM, respectively. Moreover, the TGI amounted to 24.3 µM in the assay with SK-OV-3 ovarian; 4.75 µM in the assay with KM12 colon; 8.49 µM with NCI/ADR-RES ovarian; 11.8 µM with SNB-75 CNS; 3.34 µM in the assay on U251 CNS; 3.46 µM in the assay with MDA-MB-435. In addition, the results for the TGI in the assay on M14 melanoma and in the assay on PC-3 prostate were 3.34 µM and 3.56 µM, respectively.
`CC1CCC2C(C)C(=O)OC2C2(C)C(=O)C=CC12` (stereo unspecified): the TGI in the assay with SK-OV-3 ovarian, with KM12 colon, in the assay with NCI/ADR-RES ovarian, in the assay on SNB-75 CNS, with U251 CNS and with MDA-MB-435 was over 10 µM throughout. Also, the TGI with M14 melanoma and in the assay with PC-3 prostate was over 10 µM in each case.
Take `NCCO/C=C/C(N)C(=O)O` (stereo unspecified): the TGI with SK-OV-3 ovarian, in the assay on KM12 colon, in the assay on NCI/ADR-RES ovarian, in the assay with SNB-75 CNS, in the assay on U251 CNS and with MDA-MB-435 was over 100 µM throughout. The TGI in the assay on M14 melanoma and in the assay with PC-3 prostate was over 100 µM in each case.
Take `Cn1c(COC(=O)NCCn2ccnc2)nc2c(N3CCOCC3)nc(-c3ccccc3)nc21`: the GI50 was 3.63 µM with SK-OV-3 ovarian; 1.43 µM with KM12 colon; 1.54 µM in the assay on NCI/ADR-RES ovarian; 0.759 µM with SNB-75 CNS; 1.35 µM in the assay on U251 CNS; 0.694 µM with MDA-MB-435. The figures for the GI50 in the assay with M14 melanoma and in the assay with PC-3 prostate were 0.561 µM and 0.751 µM, respectively. For the same compound, the TGI was 10.6 µM in the assay with SK-OV-3 ovarian; 3.06 µM in the assay on KM12 colon; 5.09 µM in the assay with NCI/ADR-RES ovarian; 2.15 µM in the assay with SNB-75 CNS; 2.87 µM with U251 CNS; 2.08 µM in the assay on MDA-MB-435. In addition, the TGI with M14 melanoma was 1.92 µM; in the assay on PC-3 prostate it was 2.14 µM.
Turning to `COc1ccc2[nH]c(C(=O)N3CCN(C(=O)OCc4ccc5c(Cl)cc(Cl)c(O)c5n4)CC3)cc2c1`, the GI50 was 5.36 µM in the assay with SK-OV-3 ovarian; 1.69 µM with KM12 colon; 1.83 µM in the assay with NCI/ADR-RES ovarian; 1.08 µM in the assay on SNB-75 CNS; 1.48 µM with U251 CNS; 1.2 µM in the assay on MDA-MB-435. The GI50 in the assay with M14 melanoma is 1.15 µM; in the assay on PC-3 prostate it was 1.06 µM. Also, the TGI was found to be 17.6 µM in the assay on SK-OV-3 ovarian; 3.68 µM in the assay with KM12 colon; 6.37 µM in the assay with NCI/ADR-RES ovarian; 2.4 µM in the assay on SNB-75 CNS; 2.81 µM with U251 CNS; 2.72 µM with MDA-MB-435. The TGI was 2.6 µM in the assay on M14 melanoma and 2.67 µM in the assay with PC-3 prostate.
Consider `COc1ccc(-c2ccc(OC)c(OC)c2OC)cc1`, for which the GI50 in the assay with SK-OV-3 ovarian was 2.63 µM; in the assay on KM12 colon, 0.767 µM; with NCI/ADR-RES ovarian, 0.529 µM; in the assay on SNB-75 CNS, 3.34 µM; with U251 CNS it was 2.01 µM; in the assay on MDA-MB-435 it was 0.239 µM. Moreover, the GI50 is 0.817 µM in the assay on M14 melanoma and 3.62 µM with PC-3 prostate. The TGI in the assay with SK-OV-3 ovarian is 62 µM; with KM12 colon, over 51.8 µM; in the assay with NCI/ADR-RES ovarian, 5.38 µM; with SNB-75 CNS it was over 100 µM; in the assay on U251 CNS, over 100 µM; in the assay with MDA-MB-435 it was 0.833 µM. Besides, the results for the TGI in the assay with M14 melanoma and in the assay on PC-3 prostate were over 77.8 µM and over 100 µM, respectively.
Regarding `Nc1cc2c3c(cccc3c1)C(=O)N(CCN1CCCC1)C2=O`, the GI50 with SK-OV-3 ovarian is 2.16 µM; with KM12 colon, 3.66 µM; with NCI/ADR-RES ovarian, 3.62 µM; in the assay on SNB-75 CNS it was 3.4 µM; in the assay on U251 CNS it was 3.4 µM; with MDA-MB-435, 4.06 µM. The GI50 in the assay with M14 melanoma is 3.92 µM; in the assay with PC-3 prostate, 3.89 µM. In addition, the TGI in the assay with SK-OV-3 ovarian is 22.7 µM; in the assay with KM12 colon, 51.2 µM; in the assay with NCI/ADR-RES ovarian, over 51.4 µM; with SNB-75 CNS, 17 µM; in the assay with U251 CNS it was over 100 µM; in the assay with MDA-MB-435 it was 14.8 µM. Further, the values for the TGI in the assay with M14 melanoma and with PC-3 prostate were 21.7 µM and over 66.6 µM, respectively.
With `Clc1ccccc1C(Nc1cnccn1)Nc1cnccn1`, the TGI in the assay with SK-OV-3 ovarian, in the assay with KM12 colon, in the assay on NCI/ADR-RES ovarian, with SNB-75 CNS, in the assay with U251 CNS and in the assay on MDA-MB-435 was over 100 µM throughout. In addition, the TGI in the assay with M14 melanoma and in the assay on PC-3 prostate was over 100 µM throughout.
